Reference: ChEMBL document CHEMBL4483862, “Open-source discovery of chemical leads for next-generation chemoprotective antimalarials” (2018)

System: Plasmodium berghei
Assay: Luciferase/luciferin-expressing antifolate-resistant parasites were used to infect a culture of HepG2 cells that were pre-incubated with compounds. Infected hepatocytes emit light due to the luciferase reaction. Assay results are presented as the percent inhibition of light emission compared to control. […]
Assay type: functional
Details: sporozoite; for IC90: read-out: LUCIFERASE INFECTION ASSAY - IC90

Compound	IC90 [µM]	further results
COc1ccccc1OCCNC(=O)c1cc(C2CC2)nc2c1cnn2C(C)C	> 10	IC50 (FFLUC_HILL_SLOPE 16.8, FFLUC_R_SQUARED 0.0713, HEPG2TOX_HILL_SLOPE 2.22, HEPG2TOX_R_SQUARED 0.212, read-out: LUCIFERASE INFECTION ASSAY - IC50): > 10 µM
Cc1cc(C)c(C)c(S(=O)(=O)N2CCN(CC(=O)c3c(N)n(Cc4ccccc4)c(=O)n(C)c3=O)CC2)c1C	> 10	IC50 (FFLUC_HILL_SLOPE 17, FFLUC_R_SQUARED 0.51, read-out: LUCIFERASE INFECTION ASSAY - IC50): > 10 µM
CCn1nc(C)c(Br)c1C(=O)Sc1ccccc1Cl	> 9.17	IC50 (FFLUC_HILL_SLOPE 17.2, FFLUC_R_SQUARED 0.444, read-out: LUCIFERASE INFECTION ASSAY - IC50): > 9.17 µM
CC(Cc1cccs1)N(Cc1ccc(Cl)cc1)C(=O)c1ccc(Cl)c(S(=O)(=O)N2CCCCC2)c1 (configuration not stated)	> 10	IC50 (FFLUC_HILL_SLOPE 17, FFLUC_R_SQUARED 0.198, read-out: LUCIFERASE INFECTION ASSAY - IC50): > 10 µM
CC(=O)c1ccc(NC(=O)c2nn(-c3ccccc3)c3c2C2CCC3(C)C2(C)C)cc1 (configuration not stated)	> 10	IC50 (FFLUC_HILL_SLOPE 16.9, FFLUC_R_SQUARED 0.354, read-out: LUCIFERASE INFECTION ASSAY - IC50): > 10 µM
Cc1cc(Oc2ccc(NC(=O)Nc3c(-c4c(Cl)cccc4Cl)noc3C)cn2)cc(C)c1Cl	> 6.37	IC50 (FFLUC_HILL_SLOPE 16.7, FFLUC_R_SQUARED 0.348, read-out: LUCIFERASE INFECTION ASSAY - IC50): > 6.37 µM
CCOc1ccc(-n2c(Sc3ccc4nnnn4n3)nnc2-c2ccc(C(C)(C)C)cc2)cc1	9.4	IC50 (FFLUC_HILL_SLOPE 16.9, FFLUC_R_SQUARED 0.24, PBLUC_HILL_SLOPE 5, PBLUC_R_SQUARED 0.626, read-out: LUCIFERASE INFECTION ASSAY - IC50): 6.06 µM
Nc1ccc(NC2=C(Cl)C(=O)c3ccccc3C2=O)cc1	5.78	IC50 (FFLUC_HILL_SLOPE 16.7, FFLUC_R_SQUARED 0.273, HEPG2TOX_HILL_SLOPE 2.85, HEPG2TOX_R_SQUARED 0.992, PBLUC_HILL_SLOPE 8.6, PBLUC_R_SQUARED 0.505, read-out: LUCIFERASE INFECTION ASSAY - IC50): 4.48 µM
C/C(=N\NC(N)=S)c1ccc(OCc2ncc(C(F)(F)F)cc2Cl)cc1	4.57	IC50 (FFLUC_HILL_SLOPE 17.3, FFLUC_R_SQUARED 0.0449, HEPG2TOX_HILL_SLOPE 9.24, HEPG2TOX_R_SQUARED 0.314, PBLUC_HILL_SLOPE 1.92, PBLUC_R_SQUARED 0.719, read-out: LUCIFERASE INFECTION ASSAY - IC50): 1.46 µM
CCCCNC(=O)c1c(NC(=O)c2ccccc2F)nc2ccc(C)cn12	3.54	IC50 (FFLUC_HILL_SLOPE 17.2, FFLUC_R_SQUARED 0.157, HEPG2TOX_HILL_SLOPE 8.23, HEPG2TOX_R_SQUARED 0.602, PBLUC_HILL_SLOPE 11.7, PBLUC_R_SQUARED 0.726, read-out: LUCIFERASE INFECTION ASSAY - IC50): 2.94 µM
O=[N+]([O-])c1ccccc1Sc1sc2ncnc(N/N=C/c3ccc(Cl)cc3Cl)c2c1-c1ccccc1	> 10	IC50 (FFLUC_HILL_SLOPE 17, FFLUC_R_SQUARED 0.5, read-out: LUCIFERASE INFECTION ASSAY - IC50): > 10 µM
Cc1ccccc1OC1=C(Cl)C(=O)c2ccccc2C1=O	9.86	IC50 (FFLUC_HILL_SLOPE 16.7, FFLUC_R_SQUARED 0.318, HEPG2TOX_HILL_SLOPE 9.14, HEPG2TOX_R_SQUARED 0.751, PBLUC_HILL_SLOPE 4.24, PBLUC_R_SQUARED 0.127, read-out: LUCIFERASE INFECTION ASSAY - IC50): 5.87 µM
Cc1nn2c(NCCCn3ccnc3)cc(C(C)(C)C)nc2c1-c1ccccc1	3.07	IC50 (FFLUC_HILL_SLOPE 16.6, FFLUC_R_SQUARED 0.48, HEPG2TOX_HILL_SLOPE 8.1, HEPG2TOX_R_SQUARED 0.76, PBLUC_HILL_SLOPE 15.5, PBLUC_R_SQUARED 0.267, read-out: LUCIFERASE INFECTION ASSAY - IC50): 2.66 µM
Cn1ccc2cc(-c3cn4c(-c5ccc(CO)cc5)cnc4cn3)ccc21	0.829	IC50 (FFLUC_HILL_SLOPE 16.7, FFLUC_R_SQUARED 0.117, HEPG2TOX_HILL_SLOPE 0.88, HEPG2TOX_R_SQUARED 0.915, PBLUC_HILL_SLOPE 3.4, PBLUC_R_SQUARED 0.717, read-out: LUCIFERASE INFECTION ASSAY - IC50): 0.435 µM
Cc1cccc(Cn2nc(C(C)(C)C)cc2-c2nnc(SCC(=O)c3ccccc3)o2)c1	> 7.39	IC50 (FFLUC_HILL_SLOPE 16.7, FFLUC_R_SQUARED 0.464, PBLUC_HILL_SLOPE 10.3, PBLUC_R_SQUARED 0.0963, read-out: LUCIFERASE INFECTION ASSAY - IC50): > 7.39 µM
O=C1C=CC(=O)N1c1ccc(Cl)c(Cl)c1	> 13.6	IC50 (FFLUC_HILL_SLOPE 16.6, FFLUC_R_SQUARED 0.832, read-out: LUCIFERASE INFECTION ASSAY - IC50): > 13.6 µM

Compound	IC90 [µM]	further results
O=c1c(-c2ccc(Cl)cc2)c[nH]n1-c1cccc(C(F)(F)F)c1	> 9.74	IC50 (FFLUC_HILL_SLOPE 17.4, FFLUC_R_SQUARED 0.432, HEPG2TOX_HILL_SLOPE 8.27, HEPG2TOX_R_SQUARED 0.828, PBLUC_HILL_SLOPE 3.62, PBLUC_R_SQUARED 0.841, read-out: LUCIFERASE INFECTION ASSAY - IC50): 5.59 µM
O=C(NC1=C(Nc2ccc3c(c2)OCCO3)C(=O)c2ccccc2C1=O)c1ccc(Cl)cc1	> 10	IC50 (FFLUC_HILL_SLOPE 16.8, FFLUC_R_SQUARED 0.568, PBLUC_HILL_SLOPE 3.91, PBLUC_R_SQUARED 0.215, read-out: LUCIFERASE INFECTION ASSAY - IC50): 6.65 µM
CCCn1c(NC(=O)Cc2coc3cc(OC)ccc23)nc2ccccc21	1.31	IC50 (FFLUC_HILL_SLOPE 16.7, FFLUC_R_SQUARED 0.137, HEPG2TOX_HILL_SLOPE 1.66, HEPG2TOX_R_SQUARED 0.728, PBLUC_HILL_SLOPE 12.1, PBLUC_R_SQUARED 0.477, read-out: LUCIFERASE INFECTION ASSAY - IC50): 1.09 µM
O=C(C(/C=N/O)=N/Nc1ccc(C(F)(F)F)cc1)c1ccc(Br)cc1	3.98	IC50 (FFLUC_HILL_SLOPE 17.5, FFLUC_R_SQUARED 0.273, HEPG2TOX_HILL_SLOPE 2.17, HEPG2TOX_R_SQUARED 0.985, PBLUC_HILL_SLOPE 7.45, PBLUC_R_SQUARED 0.303, read-out: LUCIFERASE INFECTION ASSAY - IC50): 2.96 µM
COc1ccc(CC2CCC(=NOC(=O)c3ccc(C(C)(C)C)cc3)CC2)cc1 (configuration not stated)	> 8.39	IC50 (FFLUC_HILL_SLOPE 16.8, FFLUC_R_SQUARED 0.295, read-out: LUCIFERASE INFECTION ASSAY - IC50): > 8.39 µM
OCc1ccc(-c2cnc3ccc(-c4cccc(F)c4)nn23)cc1	8.2	IC50 (FFLUC_HILL_SLOPE 16.8, FFLUC_R_SQUARED 0.417, HEPG2TOX_HILL_SLOPE 9.34, HEPG2TOX_R_SQUARED 0.811, PBLUC_HILL_SLOPE 2.28, PBLUC_R_SQUARED 0.536, read-out: LUCIFERASE INFECTION ASSAY - IC50): 3.13 µM
CCN(CC)c1ccc(/C=N/Nc2ccc(C)cc2C)c(O)c1	> 10	IC50 (FFLUC_HILL_SLOPE 17.2, FFLUC_R_SQUARED 0.349, PBLUC_HILL_SLOPE 3.28, PBLUC_R_SQUARED 0.115, read-out: LUCIFERASE INFECTION ASSAY - IC50): 5.38 µM
O=C(Nc1ccc(F)c(Cl)c1)Nc1csc(Cc2c(Cl)cccc2Cl)n1	> 7.66	IC50 (FFLUC_HILL_SLOPE 16.6, FFLUC_R_SQUARED 0.437, PBLUC_HILL_SLOPE 14.1, PBLUC_R_SQUARED 0.179, read-out: LUCIFERASE INFECTION ASSAY - IC50): 6.61 µM
O=C1Nc2cc(Cl)ccc2/C1=C\c1nn(Cc2ccccc2)cc1-c1cccnc1	> 10	IC50 (FFLUC_HILL_SLOPE 16.7, FFLUC_R_SQUARED 0.641, read-out: LUCIFERASE INFECTION ASSAY - IC50): > 10 µM
C/C(=N\NC(=S)NC(C)(C)C)c1cc(Cl)cc(Cl)c1O	> 9.87	IC50 (FFLUC_HILL_SLOPE 16.6, FFLUC_R_SQUARED 0.277, read-out: LUCIFERASE INFECTION ASSAY - IC50): > 9.87 µM
O=C(OCc1cc(=O)oc2ccc3ccccc3c12)c1ccccc1-c1ccc(C(F)(F)F)cc1	> 10	IC50 (FFLUC_HILL_SLOPE 17.5, FFLUC_R_SQUARED 0.62, read-out: LUCIFERASE INFECTION ASSAY - IC50): > 10 µM
CCCCCCCCCONC(=O)Nc1ccc([N+](=O)[O-])cc1	> 10	IC50 (FFLUC_HILL_SLOPE 17.3, FFLUC_R_SQUARED 0.0693, PBLUC_HILL_SLOPE 3, PBLUC_R_SQUARED 0.451, read-out: LUCIFERASE INFECTION ASSAY - IC50): 6.31 µM
CC(C)n1c(SCC(=O)N(Cc2ccco2)C2=CCCCC2)nc2ccccc2c1=O	9.27	IC50 (FFLUC_HILL_SLOPE 16.9, FFLUC_R_SQUARED 0.338, PBLUC_HILL_SLOPE 11.7, PBLUC_R_SQUARED 0.501, read-out: LUCIFERASE INFECTION ASSAY - IC50): 7.68 µM
O=C(OCC(=O)C12CC3CC(CC(C3)C1)C2)c1ccc(Oc2ccc(Cl)cc2[N+](=O)[O-])cc1	> 10	IC50 (FFLUC_HILL_SLOPE 17.5, FFLUC_R_SQUARED 0.352, PBLUC_HILL_SLOPE 8.52, PBLUC_R_SQUARED 0.214, read-out: LUCIFERASE INFECTION ASSAY - IC50): 9.42 µM
O=C1c2ccccc2SC1(c1nc2ccccc2s1)c1nc2ccccc2s1	9.86	IC50 (FFLUC_HILL_SLOPE 17.4, FFLUC_R_SQUARED 0.735, PBLUC_HILL_SLOPE 16.6, PBLUC_R_SQUARED 0.262, read-out: LUCIFERASE INFECTION ASSAY - IC50): 8.63 µM
